{"source": "patent US12569468B2", "about": "“Use of palovarotene in treatment against HBV virus” (YANG SHENG TANG COMPANY, LTD., priority 2020, dated 2026)", "format_in_all_cases": "cell-based, hepatitis B virus", "key": {"HBV [1]": {"test_system": "HBV", "assay": "Therapeutic effect on human primary hepatocytes infected by HBV (drug from day 8 after infection)", "conditions": "drug added 8 days after infection", "experimental": "The drug to be tested and the positive control drug were diluted with medium H to the required concentrations, and to the blank group the same volume of medium H without drug was added.\nPrimary hepatocytes were isolated from humanized mice transplanted with primary human hepatocytes through perfusion technique, directly cultured in 24-well plates after counting (5×10^5 primary hepatocytes per well), and medium H was added to maintain hepatocyte morphology. Infection with HBV was performed 24 hours after culturing, the amount of HBV for infection in each well was 2000 MOI. Before infection, HBV was first dissolved in medium I to obtain HBV solution, and the infection volume was 250 μL/well. During infection, the cell supernatant was first removed by suction, the HBV solution was added to the cells, the cells were incubated for 24 hours, then the supernatant was collected as the sample of Day 0, and then the supernatant was collected every two days for detection, fresh medium H was used for replacement. On the 8th day, fresh drug-containing medium H was used for replacement to start the drug treatment, until the 14th day, all the supernatant and the cells were collected for relevant detection. The detection items included: HBsAg, HBeAg, HBV DNA, HBV cccDNA, and for the detection method, please refer to Example 1."}, "HBV [2]": {"test_system": "HBV", "assay": "Therapeutic effect on HepG2-hNTCP 2B1 infected by HBV (drug from day 6 after infection)", "conditions": "drug treatment from 6 days after HBV infection to day 12, Palovarotene at high concentrations (p<0.05), ETV 1 μM, vs blank group", "experimental": "This experiment was carried out in a 24-well culture plate. […] About 1.5×10^5 HepG2-hNTCP 2B1 cells were plated in each well, and 500 μL of medium B was added to each well. After the cells adhered, medium A was used for replacement to perform the induction with Doxycycline during the whole experiment.\n4 Days after the induction with Doxycycline, HBV infection was performed, and the amount of HBV in each well was 100 MOI. Before infection, HBV was diluted in medium C to obtain HBV solution, and the infection volume was 250 μL per well. During infection, the cell supernatant was first removed by suction, the HBV solution was added to the cells, and the cells were incubated for 24 hours, then the supernatant was collected as the sample of Day 0. Then the cells were washed three times with PBS, and fresh medium C was used for replacement. After that, the supernatant was collected every two days for detection, fresh medium C was used for replacement. On the 6th day, fresh drug-containing medium A was used for replacement to start drug treatment, then the supernatant was collected every two days for detection, and fresh drug-containing medium A was used for replacement, until the 12th day, all the supernatant and cells were collected for relevant detection. The detection items included HBsAg, HBeAg, HBV DNA, HBV cccDNA, and for the detection method, please refer to Example 1."}, "HBV [3]": {"test_system": "HBV", "assay": "Inhibitory effect on HBV infection in infection model HepG2-hNTCP 2B1 (drug before infection)", "conditions": "1, 5, 25 μM, drug from 24 h before infection to day 8, compared with blank group", "text": "The human sodium-taurocholate cotransporting polypeptide (hNTCP) gene and the red fluorescent protein (mCherry) gene were constructed in a bicistronic expression cassette regulated by tetracycline-inducible promoter, the expression cassette was stably integrated into HepG2-Tet On cells by using a lentiviral system, a stable cell line HepG2-hNTCP 2B1 with high expression of hNTCP was obtained by using flow cytometry sorting technology, and this cell model supported HBV infection and generated HBV-related indicators. (For the construction method of this cell model, please refer to: Ya-Li Zhang, Ying Gao, Jia-Li Cao, Jing-Hua Zhao, Tian-Ying Zhang, ChuanLai Yang, Hua-Long Xiong, Ying-Bin Wang, Shan-Hai Ou, Tong Cheng, Chang-Rong Chen, Quan Yuan & Ning-Shao Xia (2019), Robust in vitro assay for analyzing the neutralization activity of serum specimens against hepatitis B virus, Emerging Microbes & Infections, 8:1, 724-733, DOI: 10.1080/22221751.2019.1619485).\nThis experiment was carried out in a 24-well culture plate.\nAbout 1.5×10^5 HepG2-hNTCP 2B1 cells were plated in each well, and 500 μL of medium B was added. After the cells adhered, medium A was used for replacement to perform the induction with Doxycycline during the whole experiment.\nAfter 72 hours of the induction with Doxycycline, 500 μL of drug-containing medium A was added to each well to perform drug treatment for 24 h, and then the cells were infected with HBV, the virus amount for infection per well was 100 MOI. Before infection, HBV solution was obtained by diluting HBV in medium C, and the infection volume was 250 μL per well. […]\nHBsAg (chemiluminescence enzyme immunoassay (CLEIA), product standard number: YZB/Guo 0346-2014) and HBeAg (enzyme-linked immunosorbent assay (ELISA), product standard number: YZB/Guo 0216-2013) were detected using the Beijing Wantai Company's detection kits, and the specifical detection operations were carried out according to the detection methods described in the instructions in the kits.\nAfter the collected cells were washed with PBS, automated extraction was performed on a nucleic acid extraction workstation (purchased from GenMagBio, model: DOF-9696) using a viral DNA & RNA extraction kit (Beijing GenMagBio) (for the extraction procedure, please refer to the instrument manual) to obtain HBV DNA. The HBV DNA was quantified by probe real-time fluorescent quantitative PCR, in which the reagent used was Premix Ex Taq™ (Takara), the instrument used was Roche's LightCycler® 96, the primer sequences used for fluorescence quantification were shown in Table 1, and the fluorescence quantitative reaction system was shown in Table 2. […]"}, "[4]": {"conditions": "to day 14, p<0.05, more obvious at 5 μM and 25 μM"}, "[5]": {"conditions": "p<0.05, dose-dependent in some extent"}}}
{"smiles": "CC1(C)CCC(C)(C)c2cc(Cn3cccn3)c(/C=C/c3ccc(C(=O)O)cc3)cc21", "note": "[Palovarotene]", "values": [{"measurement": "HBV cccDNA", "setting": "HBV [1]; to day 14, 25 μM, p<0.01", "value": "significant inhibitory effects"}, {"measurement": "HBV DNA", "setting": "HBV [1]; to day 14, 25 μM, p<0.05", "value": "significant inhibitory effects"}, {"measurement": "level of HBeAg in the cell supernatant", "setting": "HBV [1]; [4]", "value": "significantly inhibited"}, {"measurement": "level of HBsAg in the cell supernatant", "setting": "HBV [1]; [4]", "value": "significantly inhibited"}, {"measurement": "HBeAg", "setting": "HBV [2]", "value": "significant inhibitory effect"}, {"measurement": "level of HBV DNA", "setting": "HBV [2]", "value": "significantly reduce"}, {"measurement": "level of HBV cccDNA", "setting": "HBV [2]", "value": "significantly reduce"}, {"measurement": "level of HBV cccDNA", "setting": "HBV [3]; p<0.0001, dose-dependent in some extent", "value": "effectively inhibit"}, {"measurement": "level of intracellular HBV DNA", "setting": "HBV [3]; p<0.001, dose-dependent in some extent", "value": "effectively inhibit"}, {"measurement": "level of HBeAg in the cell supernatant", "setting": "HBV [3]; [5]", "value": "effectively inhibit"}, {"measurement": "level of HBsAg in the cell supernatant", "setting": "HBV [3]; [5]", "value": "effectively inhibit"}]}
